Earlier results, collected in patent publication US20080260691A1 (priority 2004, published 2008).

Columns and labels:
[1] = in vivo
[2] = all animal species exposed
[3] = not given; remark: listed apart in the source

SMILES: N[C@@H](CCC(=O)O)C(=O)O [Glu]
- in vitro hydrolysis t½ rat hepatic microsomes: 30 min

SMILES: NCCCC[C@H](N)C(=O)O [Lys]
- in vitro hydrolysis t½ rat hepatic microsomes: 14 min

SMILES: N[C@@H](Cc1ccccc1)C(=O)O [Phe]
- in vitro hydrolysis t½ rat hepatic microsomes: 30 min

SMILES: N[C@@H](Cc1ccc(O)cc1)C(=O)O [Tyr]
- in vitro hydrolysis t½ rat hepatic microsomes: 5 min

SMILES: Nc1nc2c(ncn2COCCO)c(=O)[nH]1 [acyclovir]
- bioavailability [1]: 15-30%

SMILES: NC(=O)c1ncn([C@@H]2O[C@H](CO)[C@@H](O)[C@H]2O)n1 [ribavirin]
- teratogenic and/or embryocidal effects [2]: Significant teratogenic and/or embryocidal effects
- total bioavailability, average ([3]; averages): 64%
- multiple-dose half-life ([3]; multiple-dose): 12 days
- portion of drug excreted in urine as intact drug or as metabolites ([3]; oral, within 72-80 hours): approx. 53%
- bioavailability (low and variable) ([3]; range): 33-69%
- portion of a single oral dose excreted in feces ([3]; single oral dose, within 72 hours): Approximately 15%

SMILES: CC(C)[C@H](N)C(=O)OCCOCn1cnc2c(=O)[nH]c(N)nc21 [valacyclovir]
- bioavailability [1]: 54%
